Two compounds from patent US9351983B2, “Use of glycerophosphoinositols for the treatment of septic shock” (CONSIGLIO NAZIONALE DELLE RICERCHE, priority 2012, dated 2016) can be followed below.

Assay [1] has as its system LPS-activated tissue-factor (TF) activity in human monocytes. Kind of assay: Pro-coagulant activity of tissue factor (one-stage clotting time) in LPS-stimulated human monocytes. Format: cell-based. Conditions: for time at which inhibition of LPS-mediated TF activity is evident: 0.1 μg/ml LPS, 5 h versus 24 h (FIG. 2); for tissue-factor activity (pro-coagulant activity, one-stage clotting time): 50 μM to 300 μM, then 0.1 μg/ml LPS for 5 h and 24 h (FIG. 2). The protocol:
FIG. 2—The glycerophosphoinositols inhibit LPS-activated tissue-factor activity in human monocytes. Human monocytes were purified from peripheral blood of healthy donors and incubated at 37° C. for 20 min without or with different concentrations (from 50 μM to 300 μM) GroPIns or GroPIns4P, and for a further 5 h and 24 h in the absence and in presence of 0.1 μg/ml LPS from E. coli. […] Data are means (±SD) of three independent experiments performed with cells from different donors. Asterisks indicate statistically significant differences (*p=0.015; **p<0.005; ***p=0.0003) versus their respective controls. As shown, pro-coagulant activity was not detectable in untreated monocytes, and it was induced in a time-dependent manner by LPS stimulation.
The glycerophosphoinositol, differently from the PLA2IVα inhibitor, inhibits LPS-activated tissue-factor activity in human monocytes. Human monocytes were purified from peripheral blood of two healthy donors (experiment I and II) and pre-incubated at 37° C. for 20 min without (black line) or with 300 μM glycerophosphoinositol (GroPIns, blue line) or 0.5 μM PLA2IVα inhibitor (pyrrophenone, Pf, red line), and for a further 24 h in the absence or presence of increasing concentrations of LPS from E. coli (endotoxin).
The glycerophosphoinositol inhibits in a dose-dependent manner LPS-activated tissue-factor activity in human monocytes. Human monocytes were purified from peripheral blood of three healthy donors (experiments III, IV and V) and pre-incubated at 37° C. for 20 min without or with increasing concentrations of glycerophosphoinositol (GroPIns) and for a further 24 h in the absence or presence of 10 ng/ml of LPS from E. coli (endotoxin). […] The two insets in Exp IV and V show the pro-coagulant activity of tissue factor, assessed in cells stimulated by 10 ng/ml of endotoxin, with (filled bars) or without (dotted bars) 20 min pre-incubation at 37° C., in absence (Control) or in presence of 300 μM GroPIns.
The glycerophosphoinositols inhibit LPS-activated tissue-factor activity in human monocytes.
Human monocytes were obtained from whole blood collected from healthy donors (informed consent was obtained) and anticoagulated with 0.1 vol 3.8% sodium citrate/0.15 mol/l NaCl. The leukocytes were sedimented at 180×g for 15 min at 10° C. The sedimented cells were diluted to the initial volume with citrate-saline and sedimented again. This step was repeated to minimise platelet contamination. The cells were then layered onto Lymphoprep™, and centrifuged at 700×g for 20 min at 20° C. The ring of mononuclear cells was collected and sedimented at 620×g for 7 min at 8° C. The pellet was resuspended in citrate-saline and the cells were washed twice. Monocytes were purified using a discontinuous Percoll™ density gradient; the mononuclear cell preparation was resuspended in RPMI-1640 medium supplemented with 10% heat-inactivated foetal calf serum, and was layered onto a 46% isosmotic Percoll™ solution. After centrifugation at 20° C. for 30 min at 550×g, the cells at the RPMI-1640 medium/Percoll™ interface were collected and sedimented at 620×g. The pellet was resuspended in citrate-saline and the cells were washed twice. The final monocyte preparation was then resuspended in serum-free RPMI-1640 at the concentration required.
The pro-coagulant activity of tissue factor (TF activity) was measured in cell lysates according to one-stage clotting time [as reported in (Evangelista et al., Thromb Haemost. 2005; 94, 568-577)]. One hundred μl of cell lysates were added to 100 μl of 37° C. prewarmed normal human plasma. After 30 s, 100 μl 20 mM CaCl2 were added to the mixture and the clotting time was determined using a KC4A Amellung Coagulometer (Mascia Brunelli, Milan, Italy). The data were then converted in arbitrary units by interpolation with a standard curve generated with serial dilutions of human recombinant thromboplastin (Hemoliance, Instrumentation Laboratory).

Assay [2] has as its system LPS-mediated gene transcription of TNFα. As to the kind of experiment: Real-time RT-PCR of TNFα mRNA in LPS-stimulated monocytes. Format: cell-based, human. Conditions: 300 μM, 0.1 μg/ml LPS for 1.5 h or 24 h. The protocol: (§1) FIG. 4—The glycerophosphoinositols inhibit LPS-mediated gene transcription of TNFα, IL-1β and COX-2. Human monocytes were purified from peripheral blood and incubated at 37° C. for 20 min without or with 300 μM GroPIns or GroPIns4P, and for an additional 1.5 h or 24 h in the absence and presence of 0.1 μg/ml LPS from E. coli. At each time point, RNA was extracted and converted to cDNA for real-time PCR analysis of TNFα, IL-1β and COX-2. Each sample was measured in triplicate and the data were calculated using the delta-delta method (2-DDCT). Transcription of the house-keeping gene GAPDH was used to normalise the data. Measurements of mRNA levels were expressed as fold-increase over the respective control (unstimulated) cells, and are means (±SD) of triplicates from one representative experiment of 4 experiments performed with cells from different donors. Asterisks indicate statistically significant differences (*p<0.0485; **p<0.0092).
(§2) One μg total RNA (extracted through thiocyanate/caesium chloride method) was converted to cDNA using Moloney murine leukaemia virus reverse transcriptase (Applied Biosystems, Italy). […] Each sample was measured in triplicate and the data were analysed with the SDS 2.0 software (Applied Biosystems, Italy) by the delta-delta method (2-DDCT) for comparing relative expression results. […]

For assay [3], the system named is LPS-mediated gene transcription of IL-1β. As to the kind of experiment: Real-time RT-PCR of IL-1β mRNA in LPS-stimulated monocytes. Format: cell-based, human. Conditions: 300 μM, 0.1 μg/ml LPS for 1.5 h or 24 h. How it is done: as §1, §2
Background: Real-time PCR tracks product formation cycle by cycle.

[4] abbreviates: 300 μM, endotoxin 10 ng/ml for 24 h (FIG. 12).

Regarding `O=P(O)(OCC(O)CO)OC1C(O)C(O)C(O)C(O)C1O` (stereo not shown) [GroPIns, glycerophosphoinositol], the “time at which inhibition of LPS-mediated TF activity is evident” value in assay [1] is reported as “mainly evident at long times (24 h)”. For the same compound, the “tissue-factor activity (pro-coagulant activity, one-stage clotting time)” value in assay [1] (20 min pre-incubation) is recorded as “dose-dependent reduction in tissue-factor activity”. In addition, the TF activity result is recorded as “reduces TF activity” in assay [1] (300 μM, 20 min pre-incubation, increasing concentrations of endotoxin for 24 h (FIG. 10)); “reduce TF activity” in assay [1] (setting [4]); “dose-dependently reduces TF activity” in assay [1] (increasing concentrations of compound, endotoxin 10 ng/ml for 24 h (FIG. 11)). In assay [2], the “effect on LPS-induced TNFα mRNA expression” value was “inhibited the effects of LPS on expression of all of the genes analysed”. Besides, in assay [3], the “effect on LPS-induced IL-1β mRNA expression” value is “inhibited the effects of LPS on expression of all of the genes analysed”.

`O=P(O)(O)OC1[C@@H](O)[C@H](O)C(OP(=O)(O)OCC(O)CO)[C@@H](O)[C@H]1O` (stereo partly shown) [GroPIns4P, glycerophosphoinositol 4-phosphate]: in assay [1], the “time at which inhibition of LPS-mediated TF activity is evident” value is given as “already effective at shorter times (5 h)”. Also, in assay [1] (20 min pre-incubation), the “tissue-factor activity (pro-coagulant activity, one-stage clotting time)” value was “dose-dependent reduction in tissue-factor activity”. In assay [1] (setting [4]), the TF activity entry is “reduce TF activity” and the “efficacy in reducing TF activity compared with GroPIns” value is recorded as “higher efficacy than GroPIns”. In assay [2], the “effect on LPS-induced TNFα mRNA expression” value was “inhibited the effects of LPS on expression of all of the genes analysed”. The “effect on LPS-induced IL-1β mRNA expression” value in assay [3] is reported as “inhibited the effects of LPS on expression of all of the genes analysed”.
